Test results reported in patent US20240351996A1, “CDK19-SELECTIVE INHIBITORS, AND METHODS OF USE THEREOF” (CZ BIOHUB SF, LLC, priority 2022, published 2024).

Columns and labels:
CDK19/CycC = CDK19/CycC (Homo sapiens, UniProt Q9BWU1); assay: LanthaScreen europium kinase binding assay (FRET displacement), CDK19; settings: for CDK19 Selectivity: CDK19/CDK8 selectivity based on IC50 values; for IC50: his-tagged CDK19/CycC 5 nM, tracer 10 nM, 3 h incubation
Description: (§1) FRET Displacement Assay to Measure IC50: The CDK19/CDK8 IC50 values were measured to evaluate activity and to determine CDK19/CDK8 selectivity. The IC50 values of the disclosed compounds was measured using a LanthaScreen™ europium kinase binding assay (ThermoFisher), as described herein.
To a kinase buffer cocktail solution (i.e., 5× Kinase Buffer A) was added: purified recombinant his-tagged CDK19/CycC protein (5 nM), ATP-competitive kinase inhibitor scaffold kinase tracer Alexa Fluor® 665 (10 nM), biotin anti-his tag antibody (2 nM), LanthaScreen® europium-streptavidin (2 nM). An aliquot of the cocktail solution (10 μL) was added to each well of a LUMITRAC™ 200:384 flat bottom, non-treated microtiter white plate. The plate was then covered to protect light sensitive reagents and incubated for 30 min at room temperature to equilibrate before addition of any inhibitors.
(§2) A serial dilution of the compounds was titrated into each well using an automated liquid handling Staccato integrated system at the following concentration(s) (Log10 Molar [C]): −4.5, −5.0, −5.5, −6.0, −6.5, −7.0, −7.5, −8.0 so that a complete dose-response could be calculated. A Tecan microplate reader infinite m200 instrument was then used to measure the FRET signal of each individual well using an excitation of 317/20 nm, emission europium of 620/12 nm, and emission kinase tracer of 665/12 nm after a 3 h incubation period at room temperature until steady-state kinetics were achieved.
(§3) Results were performed in duplicate and were repeated a total of 3 independent times before data was normalized to the DMSO control group and IC50 values reported.

CDK8 = CDK8 (Homo sapiens, UniProt P49336); assay: LanthaScreen europium kinase binding assay (FRET displacement), CDK8
Description: as §1
[…] An aliquot of the cocktail solution (10 μL) was added to each well of a LUMITRAC™ 200:384 flat bottom, non-treated microtiter white plate. The plate was then covered to protect light sensitive reagents and incubated for 30 min at room temperature to equilibrate before addition of any inhibitors.
as §2, §3

MDA-MB-231 TNBC cells = assay: Triple-negative breast cancer cell death assay (LD50); assay type: cell-based; settings: MDA-MB-231, 48 h treatment, live cell counts normalized to DMSO
Description: Triple-Negative Breast Cancer Cell Death Assay to Measure LD50: The efficacy and selectivity of the disclosed compounds was evaluated in a TNBC cell line assay (MDA-MB-231) and/or human foreskin fibroblast 2088 cells, as was protein binding to human serum and microsomal stability of the disclosed compounds, as described herein.
Cells from a TNBC cell line (MDA-MB-231) (approximately 100,000 cells) and/or human foreskin fibroblast 2088 cells were seeded into each well of a 6-welled polystyrene treated tissue culture plate and were allowed to attach for 18 h before treatment with the test compound. Cells were then treated every 24 h with a fresh batch of media containing the test compound at one of the respective concentration(s) (Log10 Molar [C]): −5.0, −5.5, −6.0, −6.5, −7.0, −7.5 so that a complete dose-response could be calculated.
After 48 h of treatment, adherent cells were fixed with a 4% paraformaldehyde solution and stained with Hoechst 33342 nuclear dye (5 μg/mL). Each well was imaged at 10× magnification on a Keyence BZ-X710 microscope and live cell counts were performed in triplicate for each condition using automated ImageJ computational software. LD50 values represent the percentage of live cells after treatment with the test compound, which was calculated after normalization to the DMSO only treated control group.

[1] = Liver microsome stability assay (Cyprotex), human; assay type: in vitro ADME; settings: human liver microsomes
Description: (§4) Microsome Assay to Measure Stability: The stability of the compounds was evaluated using a liver cell microsome assay commercially available from Cyprotex (Watertown, MA) (https://www.cyprotex.com/admepk/in-vitro-metabolism/microsomal-stability).

[2] = Liver microsome stability assay (Cyprotex), mouse; assay type: in vitro ADME; settings: mouse liver microsomes
Description: as §4

CDK19/CycC, sequence (Q9BWU1 whole entry): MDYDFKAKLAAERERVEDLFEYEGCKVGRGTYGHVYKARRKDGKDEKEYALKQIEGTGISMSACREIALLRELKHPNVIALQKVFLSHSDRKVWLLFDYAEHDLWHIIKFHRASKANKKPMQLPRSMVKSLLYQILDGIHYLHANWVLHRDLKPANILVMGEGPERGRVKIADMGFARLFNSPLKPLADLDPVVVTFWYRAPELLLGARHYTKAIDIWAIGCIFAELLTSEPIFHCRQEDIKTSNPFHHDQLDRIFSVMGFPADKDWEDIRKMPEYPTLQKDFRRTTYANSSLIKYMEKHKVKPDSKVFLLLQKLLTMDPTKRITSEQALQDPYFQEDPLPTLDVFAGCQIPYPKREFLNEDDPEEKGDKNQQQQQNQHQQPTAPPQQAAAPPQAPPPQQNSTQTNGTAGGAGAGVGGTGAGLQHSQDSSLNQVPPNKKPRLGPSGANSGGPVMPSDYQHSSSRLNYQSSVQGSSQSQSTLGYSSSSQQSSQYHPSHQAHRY
CDK19/CycC, sequence (P24863 whole entry partner): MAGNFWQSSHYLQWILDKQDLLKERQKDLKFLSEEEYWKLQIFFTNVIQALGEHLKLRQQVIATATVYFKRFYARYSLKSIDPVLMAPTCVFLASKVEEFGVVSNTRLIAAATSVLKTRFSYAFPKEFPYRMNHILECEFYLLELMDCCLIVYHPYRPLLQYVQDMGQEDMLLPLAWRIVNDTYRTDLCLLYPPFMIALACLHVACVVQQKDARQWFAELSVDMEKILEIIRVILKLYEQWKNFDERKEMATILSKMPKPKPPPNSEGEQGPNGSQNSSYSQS
CDK8, sequence (P49336 whole entry): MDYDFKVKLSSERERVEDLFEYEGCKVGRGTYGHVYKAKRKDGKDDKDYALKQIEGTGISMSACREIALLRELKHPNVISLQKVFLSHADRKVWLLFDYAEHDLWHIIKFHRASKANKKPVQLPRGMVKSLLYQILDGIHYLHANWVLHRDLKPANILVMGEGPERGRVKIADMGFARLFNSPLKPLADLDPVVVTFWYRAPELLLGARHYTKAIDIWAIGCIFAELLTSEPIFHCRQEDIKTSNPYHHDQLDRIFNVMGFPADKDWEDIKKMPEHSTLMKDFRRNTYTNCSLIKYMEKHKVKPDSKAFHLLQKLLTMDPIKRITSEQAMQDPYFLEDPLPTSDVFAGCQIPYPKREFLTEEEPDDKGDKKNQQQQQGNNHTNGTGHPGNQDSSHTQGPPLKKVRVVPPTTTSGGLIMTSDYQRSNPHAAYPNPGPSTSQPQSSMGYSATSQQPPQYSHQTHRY
CDK8, sequence (P24863 whole entry partner): as the sequence (P24863 whole entry partner) above

SMILES	CDK19 Selectivity (CDK19/CycC)	IC50 (CDK19/CycC) [nM]	IC50 (CDK8) [nM]	MDA LD50 (MDA-MB-231 TNBC cells) [nM]	Human Microsome Stability [1] [μL/min/mg protein]	Mouse Microsome Stability [2] [μL/min/mg protein]
CC(C)Cc1ccc(Nc2ncc(Nc3ccnc4ccccc34)cn2)cc1 [Compound A11]	0.9	25	22	180	28.7	31.3
Cc1cnccc1Nc1cnc(Nc2ccc(CC(C)C)cc2)nc1 [Compound A21]	15	38	564	178	159.0	93.0
c1cc(Nc2cnc(Nc3ccc(C4CCC4)cc3)nc2)ccn1 [Compound A39]	2	9.5	19	158	7.6	38.6
CC(C)Cc1ccc(Nc2ncc(Nc3ccncc3OC3CCCC3)cn2)cc1 [Compound A53]	≥22	≤ 2.5	56	91	36	19
Fc1ccc(Nc2ncc(Oc3ccncc3)cn2)cc1 [Compound A142]	1	10000	10000	–	–	–
CC(C)Cc1ccc(Nc2ncc(Oc3ccncc3)cn2)cc1 [Compound A143]	3	3000	10000	–	–	–
FC(F)(F)Oc1ccc(Nc2ncc(Nc3ccncc3)cn2)cc1 [Compound A145]	2	36	72	–	–	–
CC(C)Cc1ccc(Nc2ncc(Nc3ccncc3C(=O)NC3CCCC3)cn2)cc1 [Compound A146]	1	219	178	–	–	–
Cc1cnccc1Nc1cnc(Nc2ccc(C3CCC3)cc2)nc1 [Compound A147]	1	13	15	–	–	–
Cc1cnccc1Nc1cnc(Nc2ccc(C3CCCCC3)cc2)nc1 [Compound A148]	1	18	17	–	–	–
CC(C)Cc1ccc(Nc2ncc(Nc3ccncc3C(F)(F)F)cn2)cc1 [Compound A154]	1	3	3	–	–	–
CC(C)Cc1ccc(Nc2ncc(Nc3ccncc3OC3CCCC3(C)C)cn2)cc1 (centres unmarked) [Compound A157]	1	67	64	–	–	–
CC(C)Cc1ccc(Nc2ncc(Nc3ccnc(N)c3)cn2)cc1 [Compound A159]	3	18	54	–	–	–
Cc1cnccc1Nc1cnc(Nc2ccc(OC(C)C)cc2)nc1 [Compound A160]	3	33	95	–	–	–
CC(C)Cc1ccc(Nc2ncc(C(F)(F)c3ccncc3)cn2)cc1 [Compound A161]	2	9	20	–	–	–
Cc1cnccc1Nc1cnc(Nc2ccc(OC(C)C)cc2F)nc1 [Compound A162]	4	89	362	–	–	–
CC(C)Cc1ccc(Nc2ncc(Nc3ccncc3NC3CCCC3)cn2)cc1 [Compound A163]	1	76	75	–	–	–
CC(C)Cc1ccc(Nc2ncc(Nc3ccncc3C3CC3)cn2)cc1 [Compound A164]	3	75	226	–	–	–
Cc1cnccc1Nc1cnc(Nc2ccc(CC(C)C)cc2C)nc1 [Compound A165]	4	57	238	–	–	–
Cc1nc(Nc2ccc(CC(C)C)cc2)ncc1Nc1ccncc1C(F)(F)F [Compound A166]	1	5	5	–	–	–
CC(C)Cc1ccc(Nc2ncc(C(C)(O)c3ccncc3)cn2)cc1 (centres unmarked) [Compound A167]	4	154	614	–	–	–
CC(C)Cc1ccc(Nc2ncc(C3(c4ccncc4)CC3)cn2)cc1 [Compound A169]	3	20	62	–	–	–
CC(C)Cc1ccc(Nc2ncc(C(=O)c3ccncc3OC3CCCC3)cn2)cc1 [Compound A170]	2	4	7	–	–	–
COc1cc(CC(C)C)ccc1Nc1ncc(C(=O)c2ccncc2OC2CCCC2)cn1 [Compound A171]	2	16	25	–	–	–
Cc1cc(Nc2cnc(Nc3ccc(CC(C)C)cc3)nc2)c(F)cn1 [Compound A174]	4	7	33	–	–	–
CC(C)Cc1ccc(Nc2ncc(C(=O)c3ccncc3OC3CCCC3)cn2)c(F)c1 [Compound A176]	2	7	13	–	–	–
CCOc1ccc(Nc2ncc(Nc3ccncc3C(F)(F)F)cn2)cc1 [Compound A178]	–	≤ 2.5	10	–	–	–
O=C(c1cnc(Nc2ccc(C3CCOCC3)cc2)nc1)c1ccncc1OC1CCCC1 [Compound A179]	≤1	≤ 2.5	≤ 2.5	–	–	–
c1cc(Nc2cnc(Nc3ccc(C4CCOCC4)cc3)nc2)c(OC2CCCC2)cn1 [Compound A180]	–	4	6	–	–	–

Now from value to molecule, other results behind:

CDK19 Selectivity (CDK19/CycC)	IC50 (CDK19/CycC) [nM]	IC50 (CDK8) [nM]	SMILES	MDA LD50 (MDA-MB-231 TNBC cells) [nM]	Human Microsome Stability [1] [μL/min/mg protein]	Mouse Microsome Stability [2] [μL/min/mg protein]
–	≤ 2.5	3	CC(C)Cc1ccc(Nc2ncc(Nc3ccncc3C#N)cn2)cc1 [Compound A149]	–	–	–
2	23	50	Cc1cnc(F)cc1Nc1cnc(Nc2ccc(CC(C)C)cc2)nc1 [Compound A150]	–	–	–
–	1060	4630	CC(C)Cc1ccc(Nc2ncc(S(=O)(=O)c3ccncc3)cn2)cc1 [Compound A152]	–	–	–
–	266	605	CC(C)Cc1ccc(Nc2ncc(Nc3ccc4c(c3)CNC4=O)cn2)cc1 [Compound A153]	–	–	–
3	6	19	CC(C)Cc1ccc(Nc2ncc(-c3cccc(-c4ccncc4)c3)cn2)cc1 [Compound A155]	–	–	–
5	54	248	CC(C)Cc1ccc(Nc2ncc(Nc3ccncc3C#Cc3ccccc3)cn2)cc1 [Compound A156]	–	–	–
–	24	16	CC(C)Cc1ccc(Nc2ncc(Nc3ccncc3-c3cnn(C4CC4)c3)cn2)cc1 [Compound A158]	–	–	–
2	5	11	Cc1cc(CC(C)C)ccc1Nc1ncc(C(=O)c2ccncc2OC2CCCC2)cn1 [Compound A172]	–	–	–
5	52	244	CC(C)Cc1ccc(Nc2ncc(Nc3ccnc(C4CC4)c3)cn2)cc1 [Compound A173]	–	–	–
4	36	129	CC(C)Cc1ccc(Nc2ncc(Nc3cc(F)ncc3F)cn2)cc1 [Compound A175]	–	–	–
–	≤ 2.5	3	CC(C)Oc1ccc(Nc2ncc(Nc3ccncc3C(F)(F)F)cn2)cc1 [Compound A177]	–	–	–
≤1	≤ 2.5	≤ 2.5	FC(F)(F)c1cnccc1Nc1cnc(Nc2ccc(C3CCOCC3)cc2)nc1 [Compound A181]	–	–	–
2	1340	2380	CC(C)Cc1ccc(Nc2ccc(C(=O)c3cccnc3)cn2)cc1 [Compound A200]	–	–	–
